Assays:
[1] = tested on: Human umbilical vein endothelial cells (HUVEC); assay: Vascular endothelial cell growth inhibitory test; format: cell-based; settings: Homo sapiens, 120 h, VEGF 120 ng/mL, culture 5 days, XTT reagent
Procedure: Human umbilical vein endothelial cells (HUVEC, purchased from KURABO) were cultured in a gas incubator (37° C., CO2 5%) in a vascular endothelial cell medium (Invitrogen) containing 5% fetal calf serum and a basic fibroblast growth factor (2.5 ng/mL). To be specific, HUVEC suspended in the aforementioned vascular endothelial cell medium (Invitrogen) containing 5% fetal calf serum were seeded into a 96 well flat-bottom plate (50 μL, 3000 cells each well). After culturing overnight, various concentrations of test substance and the final concentration (120 ng/mL) of vascular endothelial growth factor (VEGF) were dissolved in a vascular endothelial cell medium (Invitrogen) containing 5% fetal calf serum and added to each well (50 μL). After culturing for 5 days, an XTT reagent (Wako Pure Chemical Industries, Ltd.) was added to each well (10 μL), and reacted in a gas incubator (37° C., CO2 5%) for 2-3 hr. The absorbance at 450 nm was measured by a microtiter plate reader, and the cell growth inhibitory activity was determined.

[2] = molecular target: T1, PDGFR Alpha Receptor Kinase (PDGFRalpha) (Homo sapiens, UniProt P16234); assay: Determination of PDGFR alpha receptor kinase (PDGFRalpha) inhibitory activity (alpha screen); format: biochemical; settings: PDGFRalpha intracellular domain protein, 25 μM ATP buffer; read-out: IC50 value (PDGFRalpha kinase inhibition)
T1 construct: PDGFRalpha intracellular domain protein (UPSTATE); purchased UPSTATE
Procedure: The test compound dissolved in dimethyl sulfoxide (DMSO) was diluted with a buffer (50 mM Tris-HCl, pH 7.5, 5 mM MgCl2, 5 mM MnCl2, 2 mM dithiothreitol, 0.01% Tween-20).
Acceptor beads: PerkinElmer for alpha screen assay) was added to quench the reaction. The reaction solution was stood at 25° C. for 16 hr, and the count was measured using a plate reader·Fusion™ (manufactured by PerkinElmer). The kinase inhibitory rate (%) of the test compound was calculated by the following formula.
(§1) Inhibitory rate(%)=(1−(count of test compound−blank)÷(control−blank))×100
(§2) wherein the count of the solution reacted without addition of the compound is “control” and the count of the solution without addition of the compound and ATP is “blank”.

[3] = molecular target: T2, TIE2 Receptor Kinase (TIE2) (Homo sapiens, UniProt Q02763); assay: Determination of TIE2 receptor kinase (TIE2) inhibitory activity (alpha screen); format: biochemical; settings: TIE2 intracellular domain protein, 5 μM ATP buffer; read-out: IC50 value (TIE2 kinase inhibition)
T2 construct: TIE2 intracellular domain protein (UPSTATE); purchased UPSTATE
Procedure: The test compound dissolved in dimethyl sulfoxide (DMSO) was diluted with a buffer (50 mM Tris-HCl, pH 7.5, 5 mM MgCl2, 5 mM MnCl2, 2 mM dithiothreitol, 0.01% Tween-20). A buffer (10 μl) containing 50 ng/ml TIE2 intracellular domain protein (UPSTATE) and 250 ng/ml biotin-labeled polypeptide biotinyl-poly-Glu:Tyr (4:1) (CIS Bio International) was added to the compound solution (5 μl). At 5 min after mixing a kinase enzyme, the compound and a biotin-labeled polypeptide, a buffer (10 μl) containing 5 μM ATP was added to the obtained mixture, the mixture was allowed to react at 25° C. for 10 min. Then, 25 μl of a stop solution (100 mM EDTA·2 sodium salt, 62.5 mM HEPES buffer (pH 7.4), 250 mM NaCl, 0.1% bovine serum albumin, 10 μg/ml Streptavidin Donor beads: PerkinElmer for alpha screen assay, 10 μg/ml Anti-phosphotyrosine (P-Tyr-66) Acceptor beads: PerkinElmer for alpha screen assay) was added to quench the reaction. The reaction solution was stood at 25° C. for 16 hr, and the count was measured using a plate reader·Fusion™ (manufactured by PerkinElmer). The kinase inhibitory rate (%) of the test compound was calculated by the following formula.
as §1, §2
Prism (Graphpad Software) according to the nonlinear-regression sigmoidal dose-response (variable slope) analysis method.

T1 sequence (P16234 550-1089 limits assumed): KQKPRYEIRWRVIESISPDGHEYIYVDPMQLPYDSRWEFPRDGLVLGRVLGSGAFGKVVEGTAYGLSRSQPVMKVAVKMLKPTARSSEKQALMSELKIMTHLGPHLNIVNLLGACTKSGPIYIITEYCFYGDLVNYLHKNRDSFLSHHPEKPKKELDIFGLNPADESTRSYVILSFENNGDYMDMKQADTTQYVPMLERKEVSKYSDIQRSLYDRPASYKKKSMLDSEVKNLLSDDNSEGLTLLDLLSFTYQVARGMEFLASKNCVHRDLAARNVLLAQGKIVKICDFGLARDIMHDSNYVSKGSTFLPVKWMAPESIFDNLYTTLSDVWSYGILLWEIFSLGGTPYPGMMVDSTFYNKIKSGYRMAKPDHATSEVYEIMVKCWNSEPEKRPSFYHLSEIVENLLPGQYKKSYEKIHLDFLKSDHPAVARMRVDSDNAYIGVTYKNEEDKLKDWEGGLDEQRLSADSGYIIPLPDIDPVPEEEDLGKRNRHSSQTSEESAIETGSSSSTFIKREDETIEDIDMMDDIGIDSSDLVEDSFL
T2 sequence (Q02763 770-1124 limits assumed): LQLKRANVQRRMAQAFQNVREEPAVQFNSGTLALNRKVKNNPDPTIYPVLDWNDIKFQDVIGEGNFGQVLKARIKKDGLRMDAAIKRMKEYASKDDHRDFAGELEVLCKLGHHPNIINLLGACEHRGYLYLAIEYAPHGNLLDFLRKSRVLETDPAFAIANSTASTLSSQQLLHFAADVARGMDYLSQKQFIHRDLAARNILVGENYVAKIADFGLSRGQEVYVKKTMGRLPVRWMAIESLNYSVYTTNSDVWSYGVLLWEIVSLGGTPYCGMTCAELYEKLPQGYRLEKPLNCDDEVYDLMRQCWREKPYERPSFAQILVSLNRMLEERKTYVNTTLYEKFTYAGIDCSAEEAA

IC50 [2] | IC50 [3] | Structure (SMILES) | IC50 [1]
≤ 500 nM | ≤ 5 nM | CCn1ccc2ncnc(Oc3ccc(NC(=O)Nc4cccc(C(F)(F)F)c4)c(Cl)c3)c21 [Example 47, N-{2-chloro-4-[(5-ethyl-5H-pyrrolo[3,2-d]pyrimidin-4-yl)oxy]phenyl}-N′-[3-(trifluoromethyl)phenyl]urea] | 11 nM
≤ 500 nM | ≤ 5 nM | Cc1cc(Oc2ncnc3ccn(C)c23)ccc1NC(=O)Nc1cccc(C(F)(F)F)c1 [Example 41, N-{2-methyl-4-[(5-methyl-5H-pyrrolo[3,2-d]pyrimidin-4-yl)oxy]phenyl}-N′-[3-(trifluoromethyl)phenyl]urea] | 19 nM
≤ 500 nM | ≤ 5 nM | Cn1ccc2ncnc(Oc3ccc(NC(=O)Nc4cccc(OC(F)(F)F)c4)c(Cl)c3)c21 [Example 20, N-{2-chloro-4-[(5-methyl-5H-pyrrolo[3,2-d]pyrimidin-4-yl)oxy]phenyl}-N′-[3-(trifluoromethoxy)phenyl]urea] | 6.6 nM
≤ 500 nM | ≤ 5 nM | Cn1ccc2ncnc(Oc3ccc(NC(=O)Nc4cccc(C(F)(F)F)c4)c(Cl)c3)c21 [Example 15, N-{2-chloro-4-[(5-methyl-5H-pyrrolo[3,2-d]pyrimidin-4-yl)oxy]phenyl}-N′-[3-(trifluoromethyl)phenyl]urea] | 8.2 nM

Source: patent publication US20090137580A1, “Fused Heterocyclic Derivatives and Use Thereof” (Takeda Pharmaceutical Company Limited, priority 2005, published 2009)
